This assay relates to mouse DRG neurons (Mfn1 fl/fl/Mfn2 fl/fl + adeno-Cre). Briefly: Mitochondrial motility in DRG neurons after Cre-mediated mitofusin ablation. Format: cell-based. An excerpt: Mice with lox-P flanked Mfn1 or Mfn2 alleles were purchased from Jackson Laboratories (strain # 026401 and 026525, respectively) and interbred to generate Mfn1/Mfn2 double floxed (Mfn1 fl/fl/Mfn2 fl/fl) mice as a source of dorsal root ganglion neurons (DRG) in which expression of one or both mitofusins could be abrogated using adeno-Cre.
DRG neurons were isolated from ∼8-week-old Mfn2 T105M motor neuron transgenic mice, Mfn2 T105M KI mice, or Mfn1 fl/fl/Mfn2 fl/fl mice and cultured as described ([Dang et al., 2023]).
Mitochondrial motility in neuronal processes of cultured reprogrammed human motor neurons ([Abernathy et al., 2017]; [Dang et al., 2023]), mouse DRG neurons transduced with adeno-Mito-DS-Red2, or axons of ex vivo mouse sciatic nerves stained with tetramethyl rhodamine ester was measured using time-lapse confocal microscopy on a Nikon Eclipse Ti2 confocal microscope as described ([Franco et al., 2016], [2020]; [Rocha et al., 2018]). Mouse DRG neurons and reprogrammed human CMT2A motor neurons were transduced with adeno-Mito-DS-Red2 to visualize mitochondria; ex vivo sciatic nerve mitochondria were labeled with tetramethyl rhodamine ester (200 nM for 30 minutes at 37° C). […] Kymographs and quantitative data were generated using the ImageJ plug-in: Velocity_Measurement_Tool.

Consider `O=C(NC1CC1CCCCc1ccccc1)C1CCC(O)CC1` (racemic) [Compound 8015, (1r,4r)-4-hydroxy-N-[(1S,2S)-2-(4-phenylbutyl)cyclopropyl]cyclohexane-1-carboxamide], for which the Mitochondrial transport entry (DRG neurons lacking both Mfn1 and Mfn2) is listed as “no effect”. Further, where the note is “DRG neurons with conditional ablation of either Mfn1 or Mfn2”, the Mitochondrial motility entry is on record as “corrected mitochondrial dysmotility”.

Values taken from paper PMC11493442, “Sensory-Motor Neuropathy in Mfn2 T105M Knock-in Mice and Its Reversal by a Novel Piperine-Derived Mitofusin Activator” (The Journal of Pharmacology and Experimental Therapeutics, 2024).
